Reference: patent publication US20070142392A1, “Uses of rifamycins” (ActivBiotics, Inc., priority 2005, published 2007)
In brackets after ≈: the same amount, converted by molar mass.

Columns and labels:
Type in all cases: cell-based
S. aureus = assay: MIC values, S. aureus (Tables 1-4)
S. pneumo. = assay: MIC values, S. pneumo. (Tables 1-4)
E. faecalis = assay: MIC values, E. faecalis (Tables 1-4)
H. flu = tested on: H. flu
E. coli = assay: MIC values, E. coli (Tables 1-4)

Compound | MIC S. aureus (S. aureus) [ng/mL] | MIC S. pneumo. (S. pneumo.) [ng/mL] | MIC E. faecalis (E. faecalis) [ng/mL] | MIC H. flu (H. flu) [ng/mL] | MIC E. coli (E. coli) [ng/mL]
CCCC(=O)NC1CCN(c2cc(O)c3nc4c5c6c7c(C)c(O)c5c(=O)c(c-4oc3c2)NC(=O)/C(C)=C\C=C\[C@H](C)[C@H](O)[C@@H](C)[C@@H](O)[C@@H](C)[C@H](O)[C@H](C)[C@@H](OC)/C=C/O[C@@](C)(O7)C6=O)CC1 [Compound 36] | 4 (≈ 4.31 nM) | 0.03 (≈ 0.0324 nM) | 2000 (≈ 2160 nM) | 250 (≈ 270 nM) | >8000
CCNC(=O)NC1CCN(c2cc(O)c3nc4c5c6c7c(C)c(O)c5c(=O)c(c-4oc3c2)NC(=O)/C(C)=C\C=C\[C@H](C)[C@H](O)[C@@H](C)[C@@H](O)[C@@H](C)[C@H](O)[C@H](C)[C@@H](OC)/C=C/O[C@@](C)(O7)C6=O)CC1 [Compound 37] | 30 (≈ 32.3 nM) | 4 (≈ 4.31 nM) | 2000 (≈ 2160 nM) | 250 (≈ 269 nM) | >8000
CO[C@H]1/C=C/O[C@@]2(C)Oc3c(C)c(O)c4c(=O)c(c5oc6cc(N7CCC(NS(=O)(=O)C(F)(F)F)CC7)cc(O)c6nc-5c4c3C2=O)NC(=O)/C(C)=C\C=C\[C@H](C)[C@H](O)[C@@H](C)[C@@H](O)[C@@H](C)[C@H](O)[C@@H]1C [Compound 38] | 120 (≈ 121 nM) | 15 (≈ 15.2 nM) | 8000 (≈ 8090 nM) | 250 (≈ 253 nM) | >8000
CO[C@H]1/C=C/O[C@@]2(C)Oc3c(C)c(O)c4c(=O)c(c5oc6cc(N7CCC(N)CC7)cc(O)c6nc-5c4c3C2=O)NC(=O)/C(C)=C\C=C\[C@H](C)[C@H](O)[C@@H](C)[C@@H](O)[C@@H](C)[C@H](O)[C@@H]1C [Compound 39] | 30 (≈ 35 nM) | 1 (≈ 1.17 nM) | 2000 (≈ 2330 nM) | 250 (≈ 292 nM) | >8000
CCOC(=O)N1CCCC2CN(c3cc(O)c4nc5c6c7c8c(C)c(O)c6c(=O)c(c-5oc4c3)NC(=O)C(C)=CC=CC(C)C(O)C(C)C(O)C(C)C(OC(C)=O)C(C)C(OC)C=COC(C)(O8)C7=O)CC21 (centres unmarked) [Compound 40] | 60 (≈ 60.2 nM) | 8 (≈ 8.02 nM) | 1000 (≈ 1000 nM) | 500 (≈ 501 nM) | >8000
COCCOC(=O)NC1CCN(c2cc(O)c3nc4c5c6c7c(C)c(O)c5c(=O)c(c-4oc3c2)NC(=O)/C(C)=C\C=C\[C@H](C)[C@H](O)[C@@H](C)[C@@H](O)[C@@H](C)[C@H](OC(C)=O)[C@H](C)[C@@H](OC)/C=C/O[C@@](C)(O7)C6=O)CC1 [Compound 41] | 250 (≈ 250 nM) | 0.5 (≈ 0.499 nM) | >8000 | 2000 (≈ 2000 nM) | >8000
CCOC(=O)N1CCCC2CN(c3cc(O)c4nc5c6c7c8c(C)c(O)c6c(=O)c(c-5oc4c3)NC(=O)C(C)=CC=CC(C)C(O)C(C)C(O)C(C)C(O)C(C)C(OC)C=COC(C)(O8)C7=O)CC21 (centres unmarked) [Compound 42] | 8 (≈ 8.38 nM) | 0.12 (≈ 0.126 nM) | 2000 (≈ 2090 nM) | 500 (≈ 524 nM) | 8000 (≈ 8380 nM)
CO[C@H]1/C=C/O[C@@]2(C)Oc3c(C)c(O)c4c(=O)c(c5oc6cc(N7CCC(NC(C)=O)CC7)cc(O)c6nc-5c4c3C2=O)NC(=O)/C(C)=C\C=C\[C@H](C)[C@H](O)[C@@H](C)[C@@H](O)[C@@H](C)[C@H](O)[C@@H]1C [Compound 43] | 30 (≈ 33.4 nM) | 2 (≈ 2.22 nM) | 2000 (≈ 2220 nM) | 500 (≈ 556 nM) | >8000
CO[C@H]1/C=C/O[C@@]2(C)Oc3c(C)c(O)c4c(=O)c(c5oc6cc(N7CCC(NC(C)=O)CC7)cc(O)c6nc-5c4c3C2=O)NC(=O)/C(C)=C\C=C\[C@H](C)[C@H](O)[C@@H](C)[C@@H](O)[C@@H](C)[C@H](OC(C)=O)[C@@H]1C [Compound 44] | 60 (≈ 63.8 nM) | 8 (≈ 8.5 nM) | 2000 (≈ 2130 nM) | 250 (≈ 266 nM) | >8000
CO[C@H]1/C=C/O[C@@]2(C)Oc3c(C)c(O)c4c(=O)c(c5oc6cc(N7CCC(NC(=O)SC)CC7)cc(O)c6nc-5c4c3C2=O)NC(=O)/C(C)=C\C=C\[C@H](C)[C@H](O)[C@@H](C)[C@@H](O)[C@@H](C)[C@H](OC(C)=O)[C@@H]1C [Compound 45] | 15 (≈ 15.4 nM) | 1 (≈ 1.03 nM) | 4000 (≈ 4110 nM) | 500 (≈ 514 nM) | 8000 (≈ 8220 nM)
COC1C=COC2(C)Oc3c(C)c(O)c4c(=O)c(c5oc6cc(N7CC8CCCN(C(C)=O)C8C7)cc(O)c6nc-5c4c3C2=O)NC(=O)C(C)=CC=CC(C)C(O)C(C)C(O)C(C)C(O)C1C (centres unmarked) [Compound 46] | 4 (≈ 4.32 nM) | 0.06 (≈ 0.0649 nM) | 2000 (≈ 2160 nM) | 500 (≈ 541 nM) | >8000
COC1C=COC2(C)Oc3c(C)c(O)c4c(=O)c(c5oc6cc(N7CC8CCCN(C(C)=O)C8C7)cc(O)c6nc-5c4c3C2=O)NC(=O)C(C)=CC=CC(C)C(O)C(C)C(O)C(C)C(OC(C)=O)C1C (centres unmarked) [Compound 47] | 8 (≈ 8.27 nM) | 2 (≈ 2.07 nM) | 1000 (≈ 1030 nM) | 250 (≈ 259 nM) | >8000
CO[C@H]1/C=C/O[C@@]2(C)Oc3c(C)c(O)c4c(=O)c(c5oc6cc(N7CCC(NC(=O)OC(C)(C)C)CC7)cc(O)c6nc-5c4c3C2=O)NC(=O)/C(C)=C\C=C\[C@H](C)[C@H](O)[C@@H](C)[C@@H](O)[C@@H](C)[C@H](OC(C)=O)[C@@H]1C [Compound 48] | 8 (≈ 8.01 nM) | 0.25 (≈ 0.25 nM) | 2000 (≈ 2000 nM) | 1000 (≈ 1000 nM) | >8000
CO[C@H]1/C=C/O[C@@]2(C)Oc3c(C)c(O)c4c(=O)c(c5oc6cc(N7CCC(NC(=O)N8CCC(NC(=O)SC)CC8)CC7)cc(O)c6nc-5c4c3C2=O)NC(=O)/C(C)=C\C=C\[C@H](C)[C@H](O)[C@@H](C)[C@@H](O)[C@@H](C)[C@H](OC(C)=O)[C@@H]1C [Compound 49] | 60 (≈ 54.6 nM) | 0.5 (≈ 0.455 nM) | 8000 (≈ 7280 nM) | 2000 (≈ 1820 nM) | >8000
CO[C@H]1/C=C/O[C@@]2(C)Oc3c(C)c(O)c4c(=O)c(c5oc6cc(N7CCC(NC(=O)N8CCN(C)CC8)CC7)cc(O)c6nc-5c4c3C2=O)NC(=O)/C(C)=C\C=C\[C@H](C)[C@H](O)[C@@H](C)[C@@H](O)[C@@H](C)[C@H](OC(C)=O)[C@@H]1C [Compound 50] | 30 (≈ 29.3 nM) | 0.12 (≈ 0.117 nM) | 4000 (≈ 3900 nM) | 500 (≈ 488 nM) | >8000
CCOC(=O)NCC1CCN(c2cc(O)c3nc4c5c6c7c(C)c(O)c5c(=O)c(c-4oc3c2)NC(=O)/C(C)=C\C=C\[C@H](C)[C@H](O)[C@@H](C)[C@@H](O)[C@@H](C)[C@H](OC(C)=O)[C@H](C)[C@@H](OC)/C=C/O[C@@](C)(O7)C6=O)CC1 [Compound 51] | 60 (≈ 60.9 nM) | 2 (≈ 2.03 nM) | 8000 (≈ 8120 nM) | 250 (≈ 254 nM) | 8000 (≈ 8120 nM)
CO[C@H]1/C=C/O[C@@]2(C)Oc3c(C)c(O)c4c(=O)c(c5oc6cc(N7CCC(NC(=O)OC(C)(C)C)CC7)cc(O)c6nc-5c4c3C2=O)NC(=O)/C(C)=C\C=C\[C@H](C)[C@H](O)[C@@H](C)[C@@H](O)[C@@H](C)[C@H](O)[C@@H]1C [Compound 52] | 15 (≈ 15.7 nM) | 0.25 (≈ 0.261 nM) | 4000 (≈ 4180 nM) | 120 (≈ 125 nM) | >8000
COC1C=COC2(C)Oc3c(C)c(O)c4c(=O)c(c5oc6cc(N7CC8C(C7)C8N(C)C)cc(O)c6nc-5c4c3C2=O)NC(=O)C(C)=CC=CC(C)C(O)C(C)C(O)C(C)C(OC(C)=O)C1C (centres unmarked) [Compound 53] | 60 (≈ 64.9 nM) | 8 (≈ 8.65 nM) | 4000 (≈ 4320 nM) | 2000 (≈ 2160 nM) | >8000
COC1C=COC2(C)Oc3c(C)c(O)c4c(=O)c(c5oc6cc(N7CC8C(C7)C8N(C)C)cc(O)c6nc-5c4c3C2=O)NC(=O)C(C)=CC=CC(C)C(O)C(C)C(O)C(C)C(O)C1C (centres unmarked) [Compound 54] | 8 (≈ 9.06 nM) | 0.5 (≈ 0.566 nM) | 2000 (≈ 2260 nM) | 250 (≈ 283 nM) | >8000
CO[C@H]1/C=C/O[C@@]2(C)Oc3c(C)c(O)c4c(=O)c(c5oc6cc(N7CCC(CNC(C)=O)CC7)cc(O)c6nc-5c4c3C2=O)NC(=O)/C(C)=C\C=C\[C@H](C)[C@H](O)[C@@H](C)[C@@H](O)[C@@H](C)[C@H](OC(C)=O)[C@@H]1C [Compound 55] | 8 (≈ 8.38 nM) | 0.25 (≈ 0.262 nM) | 1000 (≈ 1050 nM) | 500 (≈ 524 nM) | 8000 (≈ 8380 nM)
CO[C@H]1/C=C/O[C@@]2(C)Oc3c(C)c(O)c4c(=O)c(c5oc6cc(N7CCC(CNC(C)=O)CC7)cc(O)c6nc-5c4c3C2=O)NC(=O)/C(C)=C\C=C\[C@H](C)[C@H](O)[C@@H](C)[C@@H](O)[C@@H](C)[C@H](O)[C@@H]1C [Compound 56] | 4 (≈ 4.38 nM) | 1 (≈ 1.1 nM) | 120 (≈ 131 nM) | 250 (≈ 274 nM) | 8000 (≈ 8760 nM)
CO[C@H]1/C=C/O[C@@]2(C)Oc3c(C)c(O)c4c(=O)c(c5oc6cc(N7CCC(c8ccccc8)CC7)cc(O)c6nc-5c4c3C2=O)NC(=O)/C(C)=C\C=C\[C@H](C)[C@H](O)[C@@H](C)[C@@H](O)[C@@H](C)[C@H](OC(C)=O)[C@@H]1C [Compound 57] | 8 (≈ 8.33 nM) | 0.5 (≈ 0.521 nM) | 2000 (≈ 2080 nM) | 500 (≈ 521 nM) | 8000 (≈ 8330 nM)
